What was measured:
[1] = test system: A375P cell line; assay: A375P cell line proliferation inhibitory activity (MTT assay); type: cell-based; conditions: A375P cells, 48 hours treatment
Description: A375P cell lines were purchased from ATCC and cultured in a DMEM culture medium (containing 10% FBS and 1% penicillin/streptomycin) in the presence of 5% CO2 at 37° C. The cultured A375P cell lines were taken from culture substrate with 0.05% trypsin-0.02% EDTA and plated at a density of 5×10^3 cells per well in 96-well plates.
(§1) In order to measure cell viability, MTT [3-(4,5-dimethylthiazole-2-yl)-2,5-diphenyltetrazolium bromide] activity assay method (Thiazolyl Blue Tetrazolium Bromide, Sigma Aldrich) was used. Cell lines were cultured in 96-well plates for 24 hours and treated with the compounds of Examples previously prepared. For the compound treatment, 10 mM stocks were prepared, serially diluted in DMSO and added by 0.5 μL at 8 points (final concentration of 0.5%). The cell lines in plates treated with the compounds was cultured for 48 hours, then 15 μL of dye was added to each well and cultured for 4 hours. Then, 100 μL of DMSO solvent was added to each well, and the formed solid was dissolved to measure the absorbance. The absorbance was read at a wavelength of 570 nm using EnVision 2103, and the GI 50 value was calculated using GraphPad Prism 4.0 software, and the results are shown in Table 1 below.

[2] = test system: U937 cell line; assay: U937 cell line proliferation inhibitory activity (MTT assay); type: cell-based; conditions: Homo sapiens, U-937, U937 cells
Description: as §1
U937 cell lines were purchased from ATCC and cultured in a RPMI culture medium (containing 10% FBS, 1% penicillin/streptomycin and 25 mM HEPES) in the presence of 5% CO2 at 37° C. The cell line proliferation inhibitory activity for Examples previously prepared was measured using the same MTT activity assay method as the A375P cell line proliferation inhibitory activity assay in Experimental Example 1.

SMILES | GI50 [1] | GI50 [2]
Cc1ccc(NC(=O)C2Cc3ccccc3N2)cc1NC(=O)c1cnoc1C (stereo not shown) [Example 19, N-(5-(indoline-2-carboxamido)-2-methylphenyl)-5-methylisoxazole-4-carboxamide] | 10 to 30 µM | 10 to 30 µM
Cc1cc(C)cc(C(=O)Nc2ccc(C)c(NC(=O)c3cnoc3C)c2)c1 [Example 24, N-(5-(3,5-dimethylbenzamido)-2-methylphenyl)-5-methylisoxazole-4-carboxamide] | 10 to 30 µM | 1 to 10 µM
Cc1cc(NC(=O)Nc2cccc(Cl)c2)ccc1NC(=O)c1cnoc1C [Example 37, N-(4-(3-(3-chlorophenyl)ureido)-2-methylphenyl)-5-methylisoxazole-4-carboxamide] | 10 to 30 µM | 10 to 30 µM
Cc1cc(NC(=O)c2cc(N3CCN(C)CC3)cc(C(F)(F)F)c2)ccc1NC(=O)c1cnoc1C [Example 2, 5-methyl-N-(2-methyl-4-(3-(4-methylpiperazin-1-yl)-5-(trifluoromethyl)benzamido)phenyl)isoxazole-4-carboxamide] | 10 to 30 µM | 10 to 30 µM
Cc1ccc(NC(=O)c2cc(-n3cncc3C)cc(C(F)(F)F)c2)cc1NC(=O)c1cnoc1C [Example 10, 5-methyl-N-(2-methyl-5-(3-(5-methyl-1H-imidazol-1-yl)-5-(trifluoromethyl)benzamido)phenyl)isoxazole-4-carboxamide] | 10 to 30 µM | < 1 µM
CC(=O)N1CCC(C(=O)Nc2ccc(C)c(NC(=O)c3cnoc3C)c2)CC1 [Example 15, N-(5-(1-acetylpiperidine-4-carboxamido)-2-methylphenyl)-5-methylisoxazole-4-carboxamide] | 10 to 30 µM | 10 to 30 µM

The remaining lines, values ahead:

GI50 [1] | GI50 [2] | SMILES
10 to 30 µM | 10 to 30 µM | Cc1ccc(NC(=O)Cc2ccc(-c3ccccc3)cc2)cc1NC(=O)c1cnoc1C [Example 22, N-(5-(2-(biphenyl-4-yl)acetamido)-2-methylphenyl)-5-methylisoxazole-4-carboxamide]
10 to 30 µM | 1 to 10 µM | Cc1ccc(NC(=O)Nc2ccc(Cl)c(Cl)c2)cc1NC(=O)c1cnoc1C [Example 34, N-(5-(3-(3,4-dichlorophenyl)ureido)-2-methylphenyl)-5-methylisoxazole-4-carboxamide]
10 to 30 µM | 10 to 30 µM | Cc1ccc(NC(=O)C2(C)CCc3c(C)c(O)c(C)c(C)c3O2)cc1NC(=O)c1cnoc1C (stereo not shown) [Example 14, N-(5-(6-hydroxy-2,5,7,8-tetramethylchroman-2-carboxamido)-2-methylphenyl)-5-methylisoxazole-4-carboxamide]
10 to 30 µM | 10 to 30 µM | Cc1ccc(NC(=O)c2cnccn2)cc1NC(=O)c1cnoc1C [Example 17, 5-methyl-N-(2-methyl-5-(pyrazine-2-carboxamido)phenyl)isoxazole-4-carboxamide]
10 to 30 µM | 10 to 30 µM | Cc1ccc(NC(=O)Cc2c[nH]c3ccccc23)cc1NC(=O)c1cnoc1C [Example 16, N-(5-(2-(1H-indol-3-yl)acetamido)-2-methylphenyl)-5-methylisoxazole-4-carboxamide]
10 to 30 µM | 10 to 30 µM | Cc1ccc(NC(=O)c2ccc(Cl)cc2)cc1NC(=O)c1cnoc1C [Example 7, N-(5-(4-chlorobenzamido)-2-methylphenyl)-5-methylisoxazole-4-carboxamide]
10 to 30 µM | 10 to 30 µM | Cc1ccc(NC(=O)Nc2cc(Cl)cc(Cl)c2)cc1NC(=O)c1cnoc1C [Example 33, N-(5-(3-(3,5-dichlorophenyl)ureido)-2-methylphenyl)-5-methylisoxazole-4-carboxamide]
10 to 30 µM | 10 to 30 µM | CCCS(=O)(=O)Nc1ccc(C)c(NC(=O)c2cnoc2C)c1 [Example 42, 5-methyl-N-(2-methyl-5-(propylsulfonamido)phenyl)isoxazole-4-carboxamide]

— patent publication US9789086B1, “N-(5-arylamido-2-methylphenyl)-5-methylisooxazole-4-carboxamide deravative, pharmaceutical acceptable salt thereof, method for preparation therof and FMS kinase inhibitor comprising the same as anactive ingredient” (Industry-University Cooperation Foundation Hanyang …, priority 2014, dated 2017)
